# Measured values taken from patent publication US12692238B2, “Substituted pyridazinone herbicides” (FMC CORPORATION, priority 2020, dated 2026).
# Tests used:
# Assay type in all cases: in vivo
# [1] = tested on: redroot pigweed (Amaranthus retroflexus); assay: Test A postemergence, redroot pigweed; conditions: 10 days
# Method in brief: (§1)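 Herbicidal response was scored visually after ten greenhouse days, comparing treated pots with untreated ones on a 0–100 control scale. Preemergence application was a directed soil spray; postemergence plants were treated at 2 to 10 cm height.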
# [2] = tested on: barnyardgrass (Echinochloa crus-galli); assay: Test A preemergence, barnyardgrass; conditions: 10 days
# Method in brief: as §1
# [3] = tested on: foxtail, giant (giant foxtail, Setaria faberi); assay: Test A postemergence, foxtail, giant; conditions: Setaria faberi, post-emergence, 240 h, Postemergence, 0 to 100 scale, 10 days, read-out: Plant response rating, Foxtail, Giant
# Method in brief: as §1
# kochia (Bassia scoparia) [4] = assay: Test A preemergence, kochia; conditions: Bassia scoparia, pre-emergence, 240 h, 0 to 100 scale, 10 days, read-out: Plant response rating, Kochia
# Method in brief: as §1
# [5] = tested on: sedge, umbrella (small-flower umbrella sedge, Cyperus difformis); assay: Test B flooded paddy test, sedge, umbrella; conditions: Cyperus difformis; 250 g ai/ha, Flood; visually evaluated after 10 to 14 days; read-out: Plant response rating, Sedge, Umbrella (0 to 100 scale where 0 is no effect and 100 is complete control)
# Method in brief: (§2)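 Plants grown to the 2-leaf stage were flooded to 3 cm above the soil, and test compounds were applied directly into the paddy water, which was held at that depth throughout. After 10 to 14 days in a greenhouse, injury was visually rated against controls on a 0–100 scale (0 no effect, 100 complete control).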
# kochia (Bassia scoparia) [6] = assay: Test A postemergence, kochia; conditions: Bassia scoparia, post-emergence, 240 h, 10 days, read-out: Plant response rating, Kochia
# Method in brief: as §1
# [7] = tested on: barnyardgrass (Echinochloa crus-galli); assay: Test A postemergence, barnyardgrass; conditions: Postemergence, 0 to 100 scale, 10 days
# Method in brief: as §1
# [8] = tested on: galium (catchweed bedstraw, Galium aparine); assay: Test A postemergence, galium; conditions: Galium, post-emergence, 240 h, 10 days, read-out: Plant response rating, Galium
# Method in brief: as §1
# [9] = tested on: ragweed (common ragweed, Ambrosia artemisiifolia); assay: Test A postemergence, ragweed; conditions: Ambrosia artemisiifolia, post-emergence, 240 h, 10 days, read-out: Plant response rating, Ragweed
# Method in brief: as §1
# [10] = tested on: ducksalad (Heteranthera limosa); assay: Test B flooded paddy test, ducksalad; conditions: Heteranthera limosa; 250 g ai/ha, Flood; visually evaluated after 10 to 14 days; read-out: Plant response rating, Ducksalad (0 to 100 scale where 0 is no effect and 100 is complete control)
# Method in brief: as §2
# [11] = tested on: foxtail, giant (giant foxtail, Setaria faberi); assay: Test A preemergence, foxtail, giant; conditions: Setaria faberi, pre-emergence, 240 h, 0 to 100 scale, 10 days, read-out: Plant response rating, Foxtail, Giant
# Method in brief: as §1
# [12] = tested on: ryegrass, Italian (Italian ryegrass, Lolium multiflorum); assay: Test A postemergence, ryegrass, Italian; conditions: Lolium multiflorum, post-emergence, 240 h, 10 days, read-out: Plant response rating, Ryegrass, Italian
# Method in brief: as §1
# [13] = tested on: redroot pigweed (Amaranthus retroflexus); assay: Test A preemergence, redroot pigweed; conditions: 0 to 100 scale, 10 days
# Method in brief: as §1
# [14] = tested on: ryegrass, Italian (Italian ryegrass, Lolium multiflorum); assay: Test A preemergence, ryegrass, Italian; conditions: Lolium multiflorum, pre-emergence, 240 h, 0 to 100 scale, 10 days, read-out: Plant response rating, Ryegrass, Italian
# Method in brief: as §1
# rice (Oryza sativa) = assay: Test B flooded paddy test, rice; conditions: Oryza sativa; 250 g ai/ha, Flood; visually evaluated after 10 to 14 days; read-out: Plant response rating, Rice (0 to 100 scale where 0 is no effect and 100 is complete control)
# Method in brief: as §2
# [15] = tested on: barnyardgrass (Echinochloa crus-galli); assay: Test B flooded paddy test, barnyardgrass; conditions: Echinochloa crus-galli; 250 g ai/ha, Flood; visually evaluated after 10 to 14 days; read-out: Plant response rating, Barnyardgrass (0 to 100 scale where 0 is no effect and 100 is complete control)
# Method in brief: as §2
# [16] = 31 g ai/ha, postemergence, 0 to 100 scale (0 no effect, 100 complete control)
# [17] = Postemergence, 125 g ai/ha, 0 to 100 scale
smiles,measurement,setting,value
"CC(=O)OCOc1c(C)nn(C)c(=O)c1-c1c(Br)sc2ccc(F)cc12 [Compound 2, 5-[(acetyloxy)methoxy]-4-(2-bromo-5-fluorobenzo[b]thien-3-yl)-2,6-dimethyl-3(2H)-pyridazinone]","Plant response rating, Pigweed, Redroot",[1]; [16],80
same,"Plant response rating, Pigweed, Redroot",[1]; [17],90
same,"Plant response rating, Barnyardgrass","[2]; 31 g ai/ha, 0 to 100 scale",0
same,"Plant response rating, Barnyardgrass","[2]; 125 g ai/ha, 0 to 100 scale (0 no effect, 100 complete control)",0
same,pest or weed control at 31 g/ha,[3]; 31 g ai/ha,50%
same,pest or weed control at 125 g/ha,[3]; 125 g ai/ha,90%
same,pest or weed control at 31 g/ha,kochia (Bassia scoparia) [4]; 31 g ai/ha,20%
same,pest or weed control at 125 g/ha,kochia (Bassia scoparia) [4]; 125 g ai/ha,50%
same,pest or weed control at 250 g/ha,[5],45%
same,pest or weed control at 31 g/ha,kochia (Bassia scoparia) [6]; [16],70%
same,pest or weed control at 125 g/ha,kochia (Bassia scoparia) [6]; [17],80%
same,"Plant response rating, Barnyardgrass",[7]; 31 g ai/ha,50
same,"Plant response rating, Barnyardgrass",[7]; 125 g ai/ha,60
same,pest or weed control at 31 g/ha,[8]; [16],90%
same,pest or weed control at 125 g/ha,[8]; [17],100%
same,pest or weed control at 31 g/ha,[9]; [16],70%
same,pest or weed control at 125 g/ha,[9]; [17],100%
same,pest or weed control at 250 g/ha,[10],20%
same,pest or weed control at 31 g/ha,[11]; 31 g ai/ha,30%
same,pest or weed control at 125 g/ha,[11]; 125 g ai/ha,60%
same,pest or weed control at 31 g/ha,[12]; [16],80%
same,pest or weed control at 125 g/ha,[12]; [17],100%
same,"Plant response rating, Pigweed, Redroot",[13]; 31 g ai/ha,90
same,"Plant response rating, Pigweed, Redroot",[13]; 125 g ai/ha,100
same,pest or weed control at 31 g/ha,[14]; 31 g ai/ha,70%
same,pest or weed control at 125 g/ha,[14]; 125 g ai/ha,100%
same,plant injury at 250 g/ha,rice (Oryza sativa),0%
same,pest or weed control at 250 g/ha,[15],0%
